Experimental data from patent publication US7166570B2, “Medical implants and fibrosis-inducing agents” (Angiotech International AG, priority 2003, dated 2007).

Tests used:
Assay in all cases: MIC determination by microtitre broth dilution
Assay type in all cases: cell-based
E. coli UB1005 C498 wt = conditions: Gram−, Mueller Hinton broth, 37° C., 24 h, aerobic, N = No activity
Procedure: (§1) MIC assays were conducted essentially as described by Amsterdam, D. 1996, “Susceptibility testing of antimicrobials in liquid media,” p. 52–111. In Loman, V., ed. Antibiotics in laboratory medicine, 4th ed. Williams and Wilkins, Baltimore, Md.

[1] = tested on: K. pneumoniae ATCC13883 C238 wt; conditions: Gram−, Mueller Hinton broth, 37° C., 24 h, aerobic, N = No activity
Procedure: as §1

[2] = tested on: P. aeruginosa PAE/K799 H187 Wt; conditions: Gram−, Mueller Hinton broth, 37° C., 24 h, aerobic, N = No activity
Procedure: as §1

[3] = tested on: S. aureus ATCC25923 C622 wt; conditions: Gram+, Mueller Hinton broth, 37° C., 24 h, aerobic, N = No activity
Procedure: as §1

S. epidermidis C621 wt = conditions: Gram+, Mueller Hinton broth, 37° C., 24 h, aerobic, N = No activity
Procedure: as §1

S. pyogenes C721 wt = conditions: Gram+, Todd Hewitt broth, 37° C., 24 h, aerobic, N = No activity
Procedure: as §1

| SMILES | Minimum inhibitory concentration (MIC) (E. coli UB1005 C498 wt) | Minimum inhibitory concentration (MIC) [1] | Minimum inhibitory concentration (MIC) [2] | Minimum inhibitory concentration (MIC) [3] | Minimum inhibitory concentration (MIC) (S. epidermidis C621 wt) | Minimum inhibitory concentration (MIC) (S. pyogenes C721 wt) |
| --- | --- | --- | --- | --- | --- | --- |
| Sc1ncc2[nH]cnc2n1 [2-mercaptopurine] | N | N | N | N | N | N |
| O=c1[nH]cc(F)c(=O)[nH]1 [5-Fluorouracil] | 10^−6 Molar | 10^−6 Molar | 10^−5 Molar | 10^−7 Molar | 10^−7 Molar | 10^−4 Molar |
| Sc1ncnc2nc[nH]c12 [6-mercaptopurine] | N | N | N | N | N | N |
| CC[C@@]1(O)C(=O)OCc2c1cc1n(c2=O)Cc2cc3ccccc3nc2-1 [Camptothecin] | N | N | N | N | 10^−4 Molar | N |
| Nc1ccn([C@@H]2O[C@H](CO)[C@@H](O)[C@@H]2O)c(=O)n1 [Cytarabine] | N | N | N | N | N | N |
| COc1cccc2c1C(=O)c1c(O)c3c(c(O)c1C2=O)C[C@@](O)(C(=O)CO)C[C@@H]3O[C@H]1C[C@H](N)[C@H](O)[C@H](C)O1 [Doxorubicin] | 10^−4 Molar | 10^−6 Molar | 10^−5 Molar | 10^−5 Molar | 10^−6 Molar | 10^−7 Molar |
| CN(Cc1cnc2nc(N)nc(N)c2n1)c1ccc(C(=O)N[C@@H](CCC(=O)O)C(=O)O)cc1 [Methotrexate] | N | 10^−6 Molar | N | 10^−5 Molar | N | 10^−6 Molar |
| COc1cc([C@@H]2c3cc4c(cc3[C@@H](O[C@@H]3O[C@@H]5CO[C@@H](C)O[C@H]5[C@H](O)[C@H]3O)[C@H]3COC(=O)[C@H]23)OCO4)cc(OC)c1O [etoposide] | N | 10^−5 Molar | N | 10^−5 Molar | 10^−6 Molar | 10^−5 Molar |
| NC(=O)NO [hydroxyurea] | N | N | 10^−4 Molar | N | N | 10^−4 Molar |
| O=C1c2c(O)ccc(O)c2C(=O)c2c(NCCNCCO)ccc(NCCNCCO)c21 [mitoxantrone] | 10^−5 Molar | 10^−6 Molar | 10^−5 Molar | 10^−5 Molar | 10^−5 Molar | 10^−6 Molar |
| Nc1ncnc2c1ccn2[C@@H]1O[C@H](CO)[C@@H](O)[C@H]1O [tubercidin] | N | N | N | N | N | N |
